Assays:
[1] = test system: K. pneumoniae ST258; assay: Potentiation of additional antibiotics (COMPAN1F plates), MIC; format: cell-based, Klebsiella pneumoniae; conditions: for MIC of antibiotic in presence of peptidomimetic 1: + 1 μM peptidomimetic 1; for MIC of antibiotic in presence of peptidomimetic 15: + 1 μM peptidomimetic 15; for MIC of antibiotic in presence of peptidomimetic 26: + 1 μM peptidomimetic 26; for MIC: Klebsiella pneumoniae, read-out: MIC of antibiotic alone
Experimental: (§1) Minimal inhibitory concentrations (MICs) of peptidomimetics, antibiotics and their combinations were determined by broth microdilution according to the Clinical Laboratory Standards Institute performance standards (Clinical and Laboratory Standards Institute, [2013]). […] Since rifampicin and azithromycin mainly are used to treat infections with Gram-positive pathogens only CLSI clinical breakpoints were available for such bacteria. […] Potentiation of additional antibiotics by peptidomimetics was determined by using commercial 96-well plates containing varied concentrations of standard antibiotics (COMPAN1F; Trek Diagnostic Systems Inc.). The peptidomimetics were added immediately prior to inoculation with pathogen, and then MICs were determined as above. The MICs of peptidomimetic/antibiotic combinations were determined according to the method above, and the concentration ratios were selected based upon checkerboard results with 2:1 and 1:4 ratio of peptidomimetic with rifampicin or azithromycin, respectively. Minimal bactericidal concentrations (MBCs) were determined by using growth-curve assay plates. MIC plates were prepared as above, and then the plates were incubated at 37°C with continuous shaking. Growth was recorded at 10 min intervals as optical density (OD) at 600 nm during 24 h. At 24 h, for wells without growth, a sample was diluted 10-fold in sterile saline (0.9% sodium chloride) and plated onto MHA, following CLSI guidelines (Clinical and Laboratory Standards Institute, [1999]).

[2] = test system: E. coli ST131; assay: as above; format: cell-based, Escherichia coli; conditions: for MIC of antibiotic in presence of peptidomimetic 26: + 0.25 μM peptidomimetic 26; for MIC of antibiotic in presence of peptidomimetic 1: + 0.5 μM peptidomimetic 1; for MIC of antibiotic in presence of peptidomimetic 15: + 0.5 μM peptidomimetic 15; for MIC: Escherichia coli, read-out: MIC of antibiotic alone; for MIC / MIC of antibiotic alone: no peptidomimetic
Experimental: as §1

Structure (SMILES) | MIC of antibiotic in presence of peptidomimetic 1 [1] [µg/mL] | MIC of antibiotic in presence of peptidomimetic 15 [1] [µg/mL] | MIC of antibiotic in presence of peptidomimetic 26 [1] [µg/mL] | MIC ([1]; no peptidomimetic) [µg/mL] | MIC of antibiotic in presence of peptidomimetic 26 [2] [µg/mL] | MIC of antibiotic in presence of peptidomimetic 1 [2] [µg/mL] | MIC of antibiotic in presence of peptidomimetic 15 [2] [µg/mL] | MIC [2] [µg/mL] | MIC of antibiotic alone ([1]; no peptidomimetic) [µg/mL] | MIC of antibiotic alone [2] [µg/mL]
Cc1nnc(SCC2=C(C(=O)O)N3C(=O)[C@@H](NC(=O)Cn4cnnn4)[C@H]3SC2)s1 [Cefazolin] | >16 | >16 | >16 | > 16 | >16 | >16 | >16 | > 16 | – | –
CO[C@@]1(NC(=O)Cc2cccs2)C(=O)N2C(C(=O)O)=C(COC(N)=O)CS[C@@H]21 [Cefoxitin] | >16 | >16 | >16 | > 16 | – | >16 | 4 | 8 | – | –
COCC1=C(C(=O)O)N2C(=O)[C@@H](NC(=O)/C(=N\OC)c3csc(N)n3)[C@H]2SC1 [Cefpodoxime] | >16 | >16 | >16 | > 16 | >16 | >16 | >16 | > 16 | – | –
CO/N=C(\C(=O)N[C@@H]1C(=O)N2C(C(=O)O)=C(CSC(=O)c3ccco3)CS[C@H]12)c1csc(N)n1 [Ceftiofur] | >4 | >4 | >4 | > 4 | – | >4 | >4 | > 4 | – | –
C[C@@H](O)[C@H]1C(=O)N2C(C(=O)O)=C(SCCN=CN)C[C@H]12 [Imipenem] | >8 | >8 | >8 | > 8 | ≤1 | ≤1 | ≤1 | ≤ 1 | – | –
CN1CCN(c2c(F)cc3c(=O)c(C(=O)O)cn4c3c2OCN4C)CC1 [Marbofloxacin] | >2 | >2 | >2 | > 2 | >2 | >2 | >2 | > 2 | – | –
Cc1onc(-c2ccccc2)c1C(=O)N[C@@H]1C(=O)N2[C@@H]1SC(C)(C)[C@@H]2C(=O)O [Oxacillin] | >4 | >4 | >4 | > 4 | >4 | >4 | >4 | > 4 | – | –

Results, then the compound that gave them:

MIC of antibiotic in presence of peptidomimetic 1 [1] [µg/mL] | MIC of antibiotic in presence of peptidomimetic 15 [1] [µg/mL] | MIC of antibiotic in presence of peptidomimetic 26 [1] [µg/mL] | MIC ([1]; no peptidomimetic) [µg/mL] | MIC of antibiotic in presence of peptidomimetic 26 [2] [µg/mL] | MIC of antibiotic in presence of peptidomimetic 1 [2] [µg/mL] | MIC of antibiotic in presence of peptidomimetic 15 [2] [µg/mL] | MIC [2] [µg/mL] | MIC of antibiotic alone ([1]; no peptidomimetic) [µg/mL] | MIC of antibiotic alone [2] [µg/mL] | Structure (SMILES)
32 | 32 | 16 | 32 | 8 | >32 | 8 | 16 | – | – | NCC[C@H](O)C(=O)N[C@@H]1C[C@H](N)[C@@H](O[C@H]2O[C@H](CN)[C@@H](O)[C@H](O)[C@H]2O)[C@H](O)[C@H]1O[C@H]1O[C@H](CO)[C@@H](O)[C@H](N)[C@H]1O [Amikacin]
>16 | >16 | >16 | > 16 | >16 | >16 | >16 | > 16 | – | – | CC1(C)S[C@@H]2[C@H](NC(=O)[C@H](N)c3ccccc3)C(=O)N2[C@H]1C(=O)O [Ampicillin]
>8 | >8 | >8 | – | >8 | >8 | >8 | – | >8 | >8 | CO/N=C(/C(=O)N[C@@H]1C(=O)N2C(C(=O)O)=C([C@@H]3CCCO3)CS[C@H]12)c1csc(N)n1 [Cefovecin]
>16 | >16 | >16 | > 16 | ≤4 | ≤4 | ≤4 | ≤ 4 | – | – | O=C(N[C@H](CO)[C@H](O)c1ccc([N+](=O)[O-])cc1)C(Cl)Cl [Chloramphenicol]
≤2 | ≤2 | ≤2 | 4 | ≤2 | ≤2 | ≤2 | ≤ 2 | – | – | C[C@H]1c2cccc(O)c2C(=O)C2=C(O)[C@]3(O)C(=O)C(C(N)=O)=C(O)[C@@H](N(C)C)[C@@H]3[C@@H](O)[C@@H]21 [Doxycycline]
>2 | >2 | >2 | > 2 | >2 | >2 | >2 | > 2 | – | – | CCN1CCN(c2cc3c(cc2F)c(=O)c(C(=O)O)cn3C2CC2)CC1 [Enrofloxacin]
>4 | >4 | >4 | > 4 | – | – | – | > 4 | – | >4 | CC[C@H]1OC(=O)[C@H](C)[C@@H](O[C@H]2C[C@@](C)(OC)[C@@H](O)[C@H](C)O2)[C@H](C)[C@@H](O[C@@H]2O[C@H](C)C[C@H](N(C)C)[C@H]2O)[C@](C)(O)C[C@@H](C)C(=O)[C@H](C)[C@@H](O)[C@]1(C)O [Erythromycin]
≤1 | 2 | ≤1 | 2 | >8 | >8 | >8 | > 8 | – | – | CNC(C)C1CCC(N)C(OC2C(N)CC(N)C(OC3OCC(C)(O)C(NC)C3O)C2O)O1 (centres unmarked) [Gentamicin]

Source: PMC6615261, “Repurposing Azithromycin and Rifampicin Against Gram-Negative Pathogens by Combination With Peptidomimetics” (Frontiers in Cellular and Infection Microbiology, 2019)
